Reference: US12583854B2, “KRAS G12C inhibitors and methods of using the same” (Amgen Inc., priority 2018, dated 2026)
Counter-ions that a name gives are not always drawn. Like-named read-outs stand apart in the source and are kept apart here.

How the values were obtained:
[1] = molecular target: GDP-bound KRAS protein (aa 1-169), containing both G12C and C118A amino acid substitutions (Homo sapiens, UniProt P01116, C118A/G12C); assay: Coupled Nucleotide Exchange Assay; format: biochemical; conditions: 5 min compound pre-incubation; SOS-mediated nucleotide exchange, AlphaScreen
Chain of GDP-bound KRAS protein (aa 1-169), containing both G12C and C118A amino acid substitutions (P01116 1-169 isoform P01116-2 G12C/C118A): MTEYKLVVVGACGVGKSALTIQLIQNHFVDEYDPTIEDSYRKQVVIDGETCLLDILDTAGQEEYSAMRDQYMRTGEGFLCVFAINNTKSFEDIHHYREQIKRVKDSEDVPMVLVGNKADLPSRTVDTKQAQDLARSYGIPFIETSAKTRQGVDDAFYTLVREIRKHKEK
Experimental: Following compound pre-incubation, purified SOS protein (aa 564-1049) and GTP (Roche 10106399001) were added to the assay wells and incubated for an additional 30 min. To determine the extent of inhibition of SOS-mediated nucleotide exchange, purified GST-tagged cRAF (aa 1-149), nickel chelate AlphaLISA acceptor beads (PerkinElmer AL108R), and AlphaScreen glutathione donor beads (PerkinElmer 6765302) were added to the assay wells and incubated for 10 minutes. The assay plates were then read on a PerkinElmer EnVision Multilabel Reader, using AlphaScreen® technology, and data were analyzed using a 4-parameter logistic model to calculate IC50 values.

[2] = test system: Phosphorylation of ERK1/2 in MIA PaCa-2 cells; assay: Phospho-ERK1/2 MSD Assay; format: cell-based; conditions: EGF stimulation 10 ng/mL, 10 min, read-out: p-ERK IC50 (2 h)
Experimental: Phospho-ERK1/2 MSD Assay: MIA PaCa-2 (ATCC® CRL-1420™) and A549 (ATCC® CCL-185™) cells were cultured in RPMI 1640 Medium (ThermoFisher Scientific 11875093) containing 10% fetal bovine serum (ThermoFisher Scientific 16000044) and 1× penicillin-streptomycin-glutamine (ThermoFisher Scientific 10378016). Sixteen hours prior to compound treatment, MIA PaCa-2 were seeded in 96-well cell culture plates at a density of 25,000 cells/well and incubated at 37° C., 5% CO2. A compound dose-response titration was diluted in growth media, added to appropriate wells of a cell culture plate, and then incubated at 37° C., 5% CO2 for 2 (see Table 10). Following compound treatment, cells were stimulated with 10 ng/mL EGF (Roche 11376454001) for 10 min, washed with ice-cold Dulbecco's phosphate-buffered saline, no Ca^2+ or Mg^2+ (ThermoFisher Scientific 14190144), and then lysed in RIPA buffer (50 mM Tris-HCl pH 7.5, 1% Igepal, 0.5% sodium deoxycholate, 150 mM NaCl, and 0.5% sodium dodecyl sulfate) containing protease inhibitors (Roche 4693132001) and phosphatase inhibitors (Roche 4906837001). Phosphorylation of ERK1/2 in compound-treated lysates was assayed using Phospho-ERK1/2 Whole Cell Lysate kits (Meso Scale Discovery K151DWD) according to the manufacturer's protocol. Assay plates were read on a Meso Scale Discovery Sector Imager 6000, and data were analyzed using a 4-parameter logistic model to calculate IC50 values.

[3] = Homo sapiens, MIA PaCa-2, 2 h compound treatment

Row | Coupled exchange IC50 (5 min; μM) [1] | IC50 [2, 3] | IC50 ([2]; 2 h compound treatment) | SMILES
1 | 0.18 µM | 260 nM | – | C=CC(=O)N1[C@H](C)CN(c2c(C#N)c(=O)n(-c3c(C)ccnc3C(C)C)c3nc(-c4ccccc4F)c(Cl)cc23)C[C@@H]1C (single isomer, unassigned) [Example 7.7]
2 | 0.07 µM | 320 nM | – | C=CC(=O)N1CCN(c2c(C#N)c(=O)n(-c3c(C(C)C)ccnc3C(C)C)c3nc(-c4ccccc4F)c(Cl)cc23)CC1 (single isomer, unassigned) [Example 8.1, 4-(4-acryloylpiperazin-1-yl)-6-chloro-1-(2,4-diisopropylpyridin-3-yl)-7-(2-fluorophenyl)-2-oxo-1,2-dihydro-1,8-naphthyridine-3-carbonitrile]
3 | 0.15 µM | 220 nM | – | C=CC(=O)N1CCN(c2c(C#N)c(=O)n(-c3c(C(C)C)ccnc3C(C)C)c3nc(-c4ccccc4C)c(Cl)cc23)CC1 (single isomer, unassigned) [Example 7, 4-(4-Acryloylpiperazin-1-yl)-6-chloro-1-(2,4-diisopropylpyridin-3-yl)-2-oxo-7-(o-tolyl)-1,2-dihydro-1,8-naphthyridine-3-carbonitrile]
4 | 0.13 µM | 90 nM | – | C=CC(=O)N1CCN(c2c(C#N)c(=O)n(-c3c(C(C)C)ncnc3C(C)C)c3nc(-c4c(N)cccc4F)c(Cl)cc23)CC1 [Example 11.4, 4-(4-acryloylpiperazin-1-yl)-7-(2-amino-6-fluorophenyl)-6-chloro-1-(4,6-diisopropylpyrimidin-5-yl)-2-oxo-1,2-dihydro-1,8-naphthyridine-3-carbonitrile]
5 | 0.34 µM | 300 nM | – | CNC/C=C/C(=O)N1CCN(c2c(C#N)c(=O)n(-c3c(C(C)C)ncnc3C(C)C)c3nc(-c4ccccc4F)c(Cl)cc23)CC1 [Example 4, (E)-6-Chloro-1-(4,6-diisopropylpyrimidin-5-yl)-7-(2-fluorophenyl)-4-(4-(4-(methylamino)but-2-enoyl)piperazin-1-yl)-2-oxo-1,2-dihydro-1,8-naphthyridine-3-carbonitrile trifluoroacetate salt]
6 | 0.09 µM | – | 50 nM | C=CC(=O)N1CCN(c2c(C#N)c(=O)n(-c3c(C(C)C)ccnc3N(C)C)c3nc(-c4ccccc4F)c(Cl)cc23)CC1 (single isomer, unassigned) [Example 8.8, 4-(4-acryloylpiperazin-1-yl)-6-chloro-1-(2-(dimethylamino)-4-isopropylpyridin-3-yl)-7-(2-fluorophenyl)-2-oxo-1,2-dihydro-1,8-naphthyridine-3-carbonitrile]
7 | 1.02 µM | 4470 nM | – | CC(C)c1ncnc(C(C)C)c1-n1c(=O)c(C#N)c(N2CCN(C(=O)/C=C/CN3CCCCC3)CC2)c2cc(Cl)c(-c3ccccc3F)nc21 [Example 3.1]
8 | 0.25 µM | 160 nM | – | C=CC(=O)N1CCN(c2c(C#N)c(=O)n(-c3c(N(C)C)ccnc3C(C)C)c3nc(-c4ccccc4F)c(Cl)cc23)CC1 (single isomer, unassigned) [Example 8.6, 4-(4-acryloylpiperazin-1-yl)-6-chloro-1-(4-(dimethylamino)-2-isopropylpyridin-3-yl)-7-(2-fluorophenyl)-2-oxo-1,2-dihydro-1,8-naphthyridine-3-carbonitrile]
9 | 0.70 µM | 760 nM | – | CC(C)c1ncnc(C(C)C)c1-n1c(=O)c(C#N)c(N2CCN(C(=O)/C=C/CNC3CC3)CC2)c2cc(Cl)c(-c3ccccc3F)nc21 [Example 5, (E)-6-Chloro-4-(4-(4-(cyclopropylamino)but-2-enoyl)piperazin-1-yl)-1-(4,6-diisopropylpyrimidin-5-yl)-7-(2-fluorophenyl)-2-oxo-1,2-dihydro-1,8-naphthyridine-3-carbonitrile]
10 | 0.24 µM | – | 240 nM | C=CC(=O)N1CCN(c2c(C#N)c(=O)n(-c3c(C(C)C)ccnc3N(C)C)c3nc(-c4ccccc4F)c(Cl)cc23)CC1 (single isomer, unassigned) [Example 8.4, 4-(4-acryloylpiperazin-1-yl)-6-chloro-1-(2-(dimethylamino)-4-isopropylpyridin-3-yl)-7-(2-fluorophenyl)-2-oxo-1,2-dihydro-1,8-naphthyridine-3-carbonitrile]
11 | 0.71 µM | 1260 nM | – | CC(C)c1ncnc(C(C)C)c1-n1c(=O)c(C#N)c(N2CCN(C(=O)/C=C/C3CCCN3C)CC2)c2cc(Cl)c(-c3ccccc3F)nc21 (stereo not drawn) [Example 3.2]
12 | 0.28 µM | 140 nM | – | C=CC(=O)N1CCN(c2c(C#N)c(=O)n(-c3c(C)ccnc3C(C)C)c3nc(-c4ccccc4F)c(Cl)cc23)C[C@H]1C [Example 6.2, (R)-4-(4-acryloyl-3-methylpiperazin-1-yl)-6-chloro-7-(2-fluorophenyl)-1-(2-isopropyl-4-methylpyridin-3-yl)-2-oxo-1,2-dihydro-1,8-naphthyridine-3-carbonitrile]
13 | – | – | 140 nM | C=CC(=O)N1CCN(c2c(C#N)c(=O)n(-c3c(C(C)C)ccnc3C(C)C)c3nc(-c4ccccc4C)c(Cl)cc23)CC1 (single isomer, unassigned) [Example 7.1, 4-(4-acryloylpiperazin-1-yl)-6-chloro-1-(2,4-diisopropylpyridin-3-yl)-2-oxo-7-(o-tolyl)-1,2-dihydro-1,8-naphthyridine-3-carbonitrile]
14 | 1.55 µM | – | – | C=CC(=O)N1CCN(c2c(C#N)c(=O)n(-c3c(C(C)C)ccnc3N(C)C)c3nc(-c4ccccc4F)c(Cl)cc23)CC1 (single isomer, unassigned) [Example 8.7, 4-(4-acryloylpiperazin-1-yl)-6-chloro-1-(2-(dimethylamino)-4-isopropylpyridin-3-yl)-7-(2-fluorophenyl)-2-oxo-1,2-dihydro-1,8-naphthyridine-3-carbonitrile]
15 | 0.36 µM | – | – | C=CC(=O)N1CCN(c2c(C#N)c(=O)n(-c3c(C(C)C)ccnc3C(C)C)c3nc(-c4ccccc4F)c(F)cc23)CC1 [Example 10.5, 4-(4-acryloylpiperazin-1-yl)-1-(2,4-diisopropylpyridin-3-yl)-6-fluoro-7-(2-fluorophenyl)-2-oxo-1,2-dihydro-1,8-naphthyridine-3-carbonitrile]
16 | 0.42 µM | – | – | C=CC(=O)N1CCN(c2c(C#N)c(=O)n(-c3c(N(C)C)ccnc3C(C)C)c3nc(-c4ccccc4F)c(Cl)cc23)CC1 (single isomer, unassigned) [Example 8.3, 4-(4-acryloylpiperazin-1-yl)-6-chloro-1-(4-(dimethylamino)-2-isopropylpyridin-3-yl)-7-(2-fluorophenyl)-2-oxo-1,2-dihydro-1,8-naphthyridine-3-carbonitrile]
17 | 0.061 µM | – | – | C=CC(=O)N1CCN(c2c(C#N)c(=O)n(-c3c(CN(C)C)ccnc3C(C)C)c3nc(-c4ccccc4F)c(Cl)cc23)CC1 [Example 2, 4-(4-Acryloylpiperazin-1-yl)-6-chloro-1-(4-((dimethylamino)methyl)-2-isopropylpyridin-3-yl)-7-(2-fluorophenyl)-2-oxo-1,2-dihydro-1,8-naphthyridine-3-carbonitrile]
18 | 2.27 µM | – | – | C=CC(=O)N1C[C@H](C)N(c2c(C#N)c(=O)n(-c3c(C)ccnc3C(C)C)c3nc(-c4ccccc4F)c(Cl)cc23)C[C@H]1C (single isomer, unassigned) [Example 7.5]
